Assay results from patent US7067500B2, “Betaines as adjuvants to susceptibility testing and antimicrobial therapy” (priority 1997, dated 2006).
Entries after “also recorded” stand apart in the source; their conditions may differ. Where a name gives a salt, the structure may show the parent alone.

Key:
[1] = tested on: M. tuberculosis isolate 571/573-BAL; test: Detergent screen for induced susceptibility, BACTEC 12B growth curves; format: cell-based, Mycobacterium tuberculosis; conditions: for RESULT (effect on growth): 571/573-BAL, detergent approximately 17 μg/ml final, BACTEC 12B supplemented with PANTA or P/cax (ceftriaxone 8 μg/ml); for CB-18 effect in the methods of the invention: carboxybetaines tested
[2] = tested on: M. fortuitum complex isolates ATCC 6841 and 495-JHH; test: CB-18 titration, BACTEC 12B growth curves; format: cell-based; conditions: M. fortuitum 495-JHH; cefoxitin (8 μg/ml in PANTA) without CB-18
[3] = tested on: M. tuberculosis isolates ATCC 27294 and 571/573-BAL; test: Further studies of the range of activity of betaines; format: cell-based, Mycobacterium tuberculosis
Description: FIGS. 32A and 32B show the variability when simple (i.e., unmodified) carboxybetaines with methylene (Detain PB and Velvetex OLB), ethylene (C18-carboxyethylbetaine), and propylene (CB-18) bridges were employed in this assay. This is consistent with the data of Tsubone K. et al., Jour. Pharm. Sci. 80:441–444 (1991) wherein toxicity is correlated with bridge length.
While the apparent bactericidal activity of the amine oxide was anticipated based on the use of these compounds in antimicrobial formulations (Michaels, E. B., U.S. Pat. No. 564,454 and U.S. Pat. No. 641,728), the activity of the Brij compounds and Crosultaine E-30 was surprising. […] Crosultaine E-30 has both an amidopropyl linkage and a hydroxypropyl bridge. […] Historically, the nonionic detergents have been reported to be contaminated with impurities, and only when purified stimulate growth (Dubos, R. J. et al., Jour. Exptl. Med. 83:409–423 (1946)). Impurities might explain the results with the Brij detergents and Crosultaine E-30.

[4] = tested on: M. tuberculosis isolate 571/573-BAL; test: Planting in lecithin at low inocula, BACTEC 12B growth curves; format: cell-based, Mycobacterium tuberculosis
Description: In this experiment the 571/573-BAL isolate was cultivated on 7H11-selective media, serially diluted in NALC/citrate to approximately 1,000×. In an attempt to examine how the inoculum impacted the results of this assay three different stocks were manufactured, one series in buffer and one series in CB-18. […] The planting solutions were manufactured by mixing these three stocks 1:1 with either buffer or a buffered solution of lecithin (Sigma, St. Louis, Mo.; Cat.#: P 5394 (7.5% lecithin was made up as a 100× concentrate in 100% ethanol (3 grams in 40 mls) and diluted in the Tris buffer of Example 1 immediately prior to use)). The final dilutions of three different planting solutions were approximately 5000×, 25,000×, and 100,000×. The final concentration of CB-18 and lecithin in the appropriate planting solutions was approximately 0.5 mM. […] The final concentration of both lecithin and CB-18 during incubation was approximately 17 μg/ml.
Aliquots of the three stocks (i.e., 2,500×, 12,500× and 50,000×) were also taken for quantitative culture by plating on 7H10 plates (Becton Dickinson, Cockeysville, Md.). […] FIG. 5A presents the 5,000× series planted in either buffer or buffer containing lecithin, and FIG. 5B presents the 5,000× series planted in CB-18 or CB-18 combined with lecithin. FIG. 5C presents the 25,000× series planted in either buffer or buffer containing lecithin, and FIG. 5D presents the 25,000× series planted in CB-18 or CB-18 combined with lecithin. FIG. 5E presents the 100,000× series planted in either buffer or buffer containing lecithin, and FIG. 5F presents the 100,000× series planted in CB-18 or CB-18 combined with lecithin.

[5] = tested on: M. tuberculosis isolates ATCC 27294 and 571/573-BAL; test: CB-18 vs. EDTA, BACTEC 12B growth curves; format: cell-based, Mycobacterium tuberculosis
[6] = tested on: M. tuberculosis isolates ATCC 27294 and 571/573-BAL; test: CB-18 and TMA-18 comparison, BACTEC 12B growth curves; format: cell-based, Mycobacterium tuberculosis
Experimental: If the mechanism of CB-18's action was similar to that of the quaternary salts (i.e., generally deleterious), then some delay would be anticipated. For example, if the CB-18 effect was a consequence of the surface active property of the detergent, then disruption of cellular function would not only have nonspecific long term consequences, but would also be independent of the isolate. In an effort to examine the similarity in the mechanism, CB-18 was assayed in parallel with trimethyloctadecylammonium bromide (TMA-18 (Aldrich, Milwaukee, Wis., Cat.# 35,924-6): made as a 100× stock in 1:1, water:isopropanol similar to that described for CB-18 in Example 1). The experimental design is outlined in FIG. 6.
In this experiment both ATCC 27294 and 571/573-BAL were cultivated on 7H11-selective media, and then serially diluted in NALC/citrate to 10,000×. The planting solution (i.e., the final dilution (50,000×)) was manufactured by diluting into either buffer, 0.5 mM CB-18, or 0.1 mM TMA-18 (all concentrations represent the final detergent concentration in the planting solution). […] The final concentration of CB-18 during incubation was approximately 17 μg/ml. The final concentration of TMA-18 during incubation was approximately 3.4 μg/ml. […] FIGS. 7A–7C show one experiment wherein ATCC 27294 cells were planted in the different solutions described above, and FIGS. 8A–8C show a parallel experiment wherein 571/573-BAL cells were planted in the same series.

Row | Compound | RESULT (effect on growth) [1] | also measured
1 | CCCCCCCCCCCCCCCCCC[N+](C)(C)Cc1ccccc1.[Cl-] [Benzyldimethyl-stearyl ammonium chloride, benzyldimethyl-stearyl ammonium chloride, reference compound] | Complete suppression of growth | –
2 | erucamidopropyl hydroxypropyl sulfobetaine [Crosultaine E-30] | Strong suppression of growth | RESULT (effect on growth) ([1]; listed as Crosultaine E30): significantly suppress growth
3 | CCCCCCCCCCCCCC[N+](C)(C)Cc1ccccc1.[Cl-] [benzyldimethyl-tetradecyl ammonium chloride, reference compound] | Complete suppression of growth | –
4 | stearylamidopropyl-carboxybetaine [Schercotaine IAB] | No effect | –
5 | CO[C@@]1(NC(=O)Cc2cccs2)C(=O)N2C(C(=O)O)=C(COC(N)=O)CS[C@@H]21 [cefoxitin, reference compound] | – | effect on growth [2]: unaffected
6 | CCCCCCCCCCCCCCCCCC[N+](C)(C)CCC(=O)[O-] [C18-carboxyethylbetaine, N-(2-carboxyethyl)-N,N-dimethyl-1-octadecanaminium, inner salt] | strong ability to suppress growth when combined with antibiotics; also recorded: Complete suppression of growth | CB-18 effect in the methods of the invention [1]: show the CB-18 effect; range of activity ([3]; ATCC 27294): 7 to 13 µg/mL
7 | cetyl-(poyoxyethylene)10 [Brij 56, reference compound] | significantly suppress growth; also recorded: Very strong suppression of growth | –
8 | CCCCCCCCCCCCCCCCCC[N+](C)(C)CCCCS(=O)(=O)[O-] [C18-sulfobutylbetaine] | Slight delay in growth | –
9 | C16-amidopropyl-sulfatobetaine | No effect | –
10 | oleyl-(poyoxyethylene)10 [Brij 97, reference compound] | significantly suppress growth; also recorded: Very strong suppression of growth | –
11 | phosphatidylcholine [lecithin] | – | ability to overcome the detrimental effect of CB-18 ([4]; lecithin and CB-18 approximately 17 μg/ml each, CB-18 alone and in combination with antibiotics): able to overcome the detrimental effect of CB-18; ability to overcome the deleterious effect of the antibiotic formulation (P/caz) ([4]; lecithin approximately 17 μg/ml, absence of CB-18): ability to overcome, to some degree; impact on the sensitivity of the BACTEC 12B assay ([4]; lecithin approximately 17 μg/ml, no CB-18): little if any impact
12 | CCCCCCCCCCCCCCCC[N+](C)(C)CC(O)CS(=O)(=O)[O-] (stereo not shown) [C16-hydroxypropyl-sulfobetaine] | Slight delay in growth | –
13 | CCCCCCCCCCCCCCCCCC[N+](C)(C)CCCS(=O)(=O)[O-] [SB-18, N-octadecyl-N,N-dimethyl-3-ammonio-1-propane-sulfonate] | significant activity; also recorded: Modest suppression | range of activity ([3]; 571/573-BAL): 20 to 75 µg/mL
14 | CCCCCCCCCCCCCCCC[N+](C)(C)CC(=O)[O-] [DeTaine PB, cetyl-carboxymethylbetaine] | Strong suppression of growth | CB-18 effect in the methods of the invention [1]: show the CB-18 effect
15 | CCCCCCCCCCCCCCCC(=O)O [Palmitic acid, palmitic acid, reference compound] | No effect | –
16 | O=C(O)CN(CCN(CC(=O)O)CC(=O)O)CC(=O)O [EDTA] | – | effect on growth characteristics ([5]; ATCC 27294 and 571/573-BAL, EDTA approximately 17 μg/ml, R.F. or P/cax): no effect
17 | [Cl-].[Cl-].[Mg+2] [MgCl2, reference compound] | – | effect on growth character in the presence of CB-18 ([5]; 571/573-BAL, five-fold molar excess of MgCl2 (85 μg/ml) added to CB-18 17 μg/ml, R.F.): no improvement; effect on the detrimental effects of the CB-18/P-cax combination ([5]; MgCl2 85 μg/ml added to CB-18 17 μg/ml with P-cax, both isolates, especially 571/573-BAL): alleviate, to some degree
18 | C[C@H](CCC(=O)NCCC[N+](C)(C)CCCS(=O)(=O)[O-])[C@H]1CC[C@H]2[C@@H]3[C@H](O)C[C@@H]4C[C@H](O)CC[C@]4(C)[C@H]3C[C@H](O)[C@]12C [CHAPS, reference compound] | No effect | –
19 | CCCCCCCCCCCCCCCCCC[N+](C)(C)C.[Br-] [TMA-18, trimethyloctadecylammonium bromide, reference compound] | Complete suppression of growth | effect on growth ([6]; 571/573-BAL, 3.4 μg/ml TMA-18, R.F., PANTA or P/cax): significant delays were observed in all bottles; effect on growth ([6]; ATCC 27294, 3.4 μg/ml TMA-18, R.F., PANTA or P/cax): significant delays in all bottles; effect on growth ([6]; ATCC 27294 and 571/573-BAL, TMA-18 3.4 μg/ml (FIGS. 7C and 8C)): bacteriostatic in isolation; also recorded: inhibitory at low concentrations
20 | oleyl-carboxymethylbetaine [Velvetex OLB-50] | Very strong suppression of growth | CB-18 effect in the methods of the invention [1]: show the CB-18 effect
21 | CCCCCCCCCCCCCCCCCC(=O)O [Stearic acid, stearic acid, reference compound] | No effect | –
22 | C[C@H](CCC(=O)O)[C@H]1CC[C@H]2[C@@H]3CC[C@@H]4C[C@H](O)CC[C@]4(C)[C@H]3C[C@H](O)[C@]12C [Deoxycholic acid, deoxycholic acid, reference compound] | No effect | –
